Measurements as given in ChEMBL document CHEMBL1146531, “Steroidal saponins from the bark of Dracaena draco and their cytotoxic activities” (J Nat Prod, 2003).
Calls of active or inactive are those of the source. The rule behind the calls is not given here.

What was measured:
[1] = system: HL-60; assay: Cytotoxicity against human HL60 cells after 72 hrs by MTT assay; assay type: functional, cell-based; conditions: HL-60, 72 h
[2] = system: HL-60; assay: Induction of apoptosis in human HL60 cells assessed as apoptotic cells at 30 uM after 12 hrs measured by morphological change; assay type: functional
[3] = system: HL-60; assay: Induction of apoptosis in human HL60 cells assessed as PARP cleavage at 30 uM after 12 hrs by Western blot analysis; assay type: functional, cell-based
[4] = system: U-937; assay: Cytotoxicity against human U937 cells; assay type: functional, cell-based
[5] = system: HL-60; assay: Cytotoxicity against human HL60 cells after 48 hrs by MTT assay; assay type: functional, cell-based

Row | Structure (SMILES) | IC50 [1] [µM] | Activity [2] [%] | further results
1 | C[C@@H]1CC[C@@]2(OC1)O[C@H]1C[C@H]3[C@@H]4CC=C5C[C@@H](O[C@@H]6O[C@H](CO)[C@@H](O[C@@H]7O[C@@H](C)[C@H](O)[C@@H](O)[C@H]7O)[C@H](O)[C@H]6O)CC[C@]5(C)[C@H]4CC[C@]3(C)[C@H]1[C@@H]2C | > 100 |  | 
2 | CO[C@]1(CC[C@@H](C)CO[C@@H]2O[C@H](CO)[C@@H](O)[C@H](O)[C@H]2O)O[C@H]2C[C@H]3[C@@H]4CC=C5C[C@@H](O[C@@H]6O[C@H](CO)[C@@H](O)[C@H](O[C@@H]7O[C@H](CO)[C@@H](O)[C@H](O)[C@H]7O)[C@H]6O[C@@H]6O[C@@H](C)[C@H](O)[C@@H](O)[C@H]6O)CC[C@]5(C)[C@H]4CC[C@]3(C)[C@H]2[C@@H]1C | 7.2 |  | 
3 | C=C1CO[C@@]2(O[C@H]3C[C@H]4[C@@H]5CC=C6C[C@@H](O)C[C@@H](O[C@@H]7OC[C@H](O)[C@H](O)[C@H]7O[C@@H]7O[C@@H](C)[C@H](OC(C)=O)[C@@H](O)[C@H]7O)[C@]6(C)[C@H]5CC[C@]4(C)[C@H]3[C@@H]2C)[C@@H](O)[C@H]1O | > 100 |  | 
4 | C[C@@H]1CC[C@@]2(OC1)O[C@H]1C[C@H]3[C@@H]4CC=C5C[C@@H](O[C@@H]6O[C@H](CO)[C@@H](O[C@@H]7O[C@@H](C)[C@H](O)[C@@H](O)[C@H]7O)[C@H](O)[C@H]6O[C@@H]6O[C@@H](C)[C@H](O)[C@@H](O)[C@H]6O)CC[C@]5(C)[C@H]4CC[C@]3(C)[C@H]1[C@@H]2C [DIOSCIN] | 2 |  | 
5 | C=C1CO[C@@]2(O[C@H]3C[C@H]4[C@@H]5CC=C6C[C@@H](O)C[C@@H](O[C@@H]7OC[C@H](O)[C@H](O)[C@H]7O[C@@H]7O[C@@H](C)[C@H](OC(C)=O)[C@@H](OC(C)=O)[C@H]7OC(C)=O)[C@]6(C)[C@H]5CC[C@]4(C)[C@H]3[C@@H]2C)[C@@H](O)[C@H]1O [DRACONIN A] | 9.7 | 35.1 | Activity [3]: Dose-dependent effect; IC50 [4]: 6.8 µM
6 | C=C1CO[C@@]2(O[C@H]3C[C@H]4[C@@H]5CC=C6C[C@@H](O)C[C@@H](O[C@@H]7OC[C@H](O)[C@H](O)[C@H]7O[C@@H]7O[C@@H](C)[C@H](O)[C@@H](OC(C)=O)[C@H]7OC(C)=O)[C@]6(C)[C@H]5CC[C@]4(C)[C@H]3[C@@H]2C)[C@@H](O)[C@H]1O [DRACONIN B] | 39 | 9.4 | 
7 | C=C1CO[C@@]2(O[C@H]3C[C@H]4[C@@H]5CC=C6C[C@@H](O)C[C@@H](O[C@@H]7OC[C@H](O)[C@H](O)[C@H]7O[C@@H]7O[C@@H](C)[C@H](O)[C@@H](O)[C@H]7OC(C)=O)[C@]6(C)[C@H]5CC[C@]4(C)[C@H]3[C@@H]2C)[C@@H](O)[C@H]1O [DRACONIN C] | > 100 | 5 | 
8 | C[C@@H]1CC[C@@]2(OC1)O[C@H]1C[C@H]3[C@@H]4CC=C5C[C@@H](O[C@@H]6O[C@H](CO)[C@@H](O)[C@H](O[C@@H]7O[C@H](CO)[C@@H](O)[C@H](O)[C@H]7O)[C@H]6O[C@@H]6O[C@@H](C)[C@H](O)[C@@H](O)[C@H]6O)CC[C@]5(C)[C@H]4CC[C@]3(C)[C@H]1[C@@H]2C [GRACILLIN] | 3.7 |  | 
9 | CO[C@]1(CC[C@@H](C)CO[C@@H]2O[C@H](CO)[C@@H](O)[C@H](O)[C@H]2O)O[C@H]2C[C@H]3[C@@H]4CC=C5C[C@@H](O[C@@H]6O[C@H](CO)[C@@H](O[C@@H]7O[C@@H](C)[C@H](O)[C@@H](O)[C@H]7O)[C@H](O)[C@H]6O[C@@H]6O[C@@H](C)[C@H](O)[C@@H](O)[C@H]6O)CC[C@]5(C)[C@H]4CC[C@]3(C)[C@H]2[C@@H]1C [METHYLPROTODIOSCIN] | 7.3 |  | Activity [5]: Active
